Counter-ions that a name gives are not always drawn. Like-named read-outs stand apart in the source and are kept apart here.
Assays:
[1] = Pharmacokinetic test in rats; format: in vivo; settings: rat, po; male SD rats, single dose i.g. 5 mg/kg, plasma, 0-24 h
Method: Test objective: in this test, a single dose of test compounds was administered to SD rats intragastrically, and the concentrations of the test compounds in plasma of the rats were measured to evaluate pharmacokinetic characteristics of the test compounds in the rats.
Test animals: male SD rats, 200-250 g, 6-8 weeks old, 3 rats/compound, purchased from Chengdu Dossy Experimental Animals Co., Ltd.
Test method: on the day of the test, 3 SD rats were randomly grouped according to their body weights. The animals were fasted with water available for 12 to 14 hours one day before the administration of a test compound, and were fed 4 hours after the administration.
Sampling: before and after the administration, 0.1 mL of blood was taken from the orbits of the rats under isoflurane anesthesia, and placed in an EDTAK2 centrifuge tube. Centrifugation was carried out at 5000 rpm at 4C for […], and the plasma was collected.
Time points for plasma collection in G1 group: 0, 5 min, 15 min, 30 min, 1 h, 2 h, 4 h, 6 h, 8 h, and 24 h.
Before analysis and detection, all samples were stored at −80° C. The samples were analyzed quantitatively by LC-MS/MS.

[2] = test system: 22RV1 cells; test: Experiment 2 on inhibiting 22RV1 cell proliferation (7 days, CellTiter-Glo); format: cell-based; settings: 1% css-FBS phenol red-free medium, incubated with compound 7 days, read-out: IC50 values on proliferation inhibition of 22RV1 cells
Outline: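 22RV1 cells plated at 2000/well in phenol red-free medium with 1% css-FBS and treated next day with compound for 7 days at 37 °C. Viability read by CellTiter-Glo luminescence relative to DMSO vehicle; IC50 from dose-response fit.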

Compound | IC50 ([2]; Homo sapiens, 22Rv1, 168 h) | other results
COc1c(Cl)cc(C(C)(C)c2ccc(OCc3ccnc(N4CCC(CN5CCC(C6CCN(c7ccc(N8CCC(=O)NC8=O)cc7)CC6)CC5)CC4)n3)cc2)cc1C#N [Compound 120, 3-chloro-5-(2-(4-((2-(4-((1′-(4-(2,4-dioxotetrahydropyrimidin-1(2H)-yl)phenyl)-[4,4′-bipiperidin]-1-yl)methyl)piperidin-1-yl)pyrimidin-4-yl)methoxy)phenyl)propan-2-yl)-2-methoxybenzonitrile] |  | AUC(0-t) [1]: 1430 ± 209 ng·h/mL
CC(C)(c1ccc(OCc2ccnc(N3CCC4(CC3)CN(CC3CCN(c5ccc6c(c5)C(=O)N(C5CCC(=O)NC5=O)C6=O)CC3)C4)n2)cc1)c1cc(Cl)cc(C#N)c1 (stereo not shown) [Compound 45, 3-chloro-5-(2-(4-((2-(2-((1-(2-(2,6-dioxopiperidin-3-yl)-1,3-dioxoisoindolin-5-yl)piperidin-4-yl)methyl)-2,7-diazaspiro[3.5]nonan-7-yl)pyrimidin-4-yl)methoxy)phenyl)propan-2-yl)benzonitrile] |  | AUC(0-t) [1]: 452 ± 137 ng·h/mL
CCOc1c(Cl)cc(C(C)(C)c2ccc(OCc3ccnc(N4CCC(CN5CCC6(CC5)CN(c5ccc7c(c5)n(C)c(=O)n7C5CCC(=O)NC5=O)C6)CC4)n3)cc2)cc1C#N (stereo not shown) [Compound 118 trifluoroacetate, 3-chloro-5-(2-(4-((2-(4-((2-(1-(2,6-dioxopiperidin-3-yl)-3-methyl-2-oxo-2,3-dihydro-1H-benzo[d]imidazol-5-yl)-2,7-diazaspiro[3.5]nonan-7-yl)methyl)piperidin-1-yl)pyrimidin-4-yl)methoxy)phenyl)propan-2-yl)-2-ethoxybenzonitrile] |  | AUC(0-t) [1]: 686 ± 336 ng·h/mL
CC(C)(c1ccc(OCc2ccnc(N3CCN(CC4CCN(CC5CCN(c6ccc7c(c6)C(=O)N(C6CCC(=O)NC6=O)C7=O)CC5)CC4)CC3)n2)cc1)c1cc(Cl)c(OCCCl)c(C#N)c1 (stereo not shown) [Compound 13, 3-chloro-2-(2-chloroethoxy)-5-(2-(4-((2-(4-((1-((1-(2-(2,6-dioxopiperidin-3-yl)-1,3-dioxoisoindolin-5-yl)piperidin-4-yl)methyl)piperidin-4-yl)methyl)piperazin-1-yl)pyrimidin-4-yl)methoxy)phenyl)propan-2-yl)benzonitrile] |  | IC50 [2]: 721 nM
CC(C)(c1ccc(OCc2ccnc(N3CCN(C4CCN(CC5CN(c6ccc7c(c6)C(=O)N(C6CCC(=O)NC6=O)C7=O)C5)C4)CC3)n2)cc1)c1cc(Cl)cc(C#N)c1 (stereo not shown) [Compound 61 trifluoroacetate, 3-chloro-5-(2-(4-((2-(4-(1-((1-(2-(2,6-dioxopiperidin-3-yl)-1,3-dioxoisoindolin-5-yl)azetidin-3-yl)methyl)pyrrolidin-3-yl)piperazin-1-yl)pyrimidin-4-yl)methoxy)phenyl)propan-2-yl)benzonitrile] | 632 nM | 
CC(C)(c1ccc(OCc2ccnc(N3CC4CN(CC5CCN(c6ccc7c(c6)C(=O)N(C6CCC(=O)NC6=O)C7=O)CC5)CC4C3)n2)cc1)c1cc(Cl)cc(C#N)c1 (stereo not shown) [Compound 72 trifluoroacetate, 3-chloro-5-(2-(4-((2-(5-((1-(2-(2,6-dioxopiperidin-3-yl)-1,3-dioxoisoindolin-5-yl)piperidin-4-yl)methyl)hexahydropyrrolo[3,4-c]pyrrol-2(1H)-yl)pyrimidin-4-yl)methoxy)phenyl)propan-2-yl)benzonitrile] | 464 nM | 
COc1c(Cl)cc(C(C)(C)c2ccc(OCc3ccnc(N4CCC5(CC4)CC(CN4CCC(c6ccc7c(c6)n(C)c(=O)n7C6CCC(=O)NC6=O)CC4)C5)n3)cc2)cc1C#N (stereo not shown) [Compound 113 trifluoroacetate, 3-chloro-5-(2-(4-((2-(2-((4-(1-(2,6-dioxopiperidin-3-yl)-3-methyl-2-oxo-2,3-dihydro-1H-benzo[d]imidazol-5-yl)piperidin-1-yl)methyl)-7-azaspiro[3.5]nonan-7-yl)pyrimidin-4-yl)methoxy)phenyl)propan-2-yl)-2-methoxybenzonitrile] | 419 nM | 
CN(CC1CCN(c2nccc(COc3ccc(C(C)(C)c4cc(Cl)cc(C#N)c4)cc3)n2)CC1)C1CCN(c2ccc3c(c2)n(C)c(=O)n3C2CCC(=O)NC2=O)CC1 (stereo not shown) [Compound 114 trifluoroacetate, 3-chloro-5-(2-(4-((2-(4-(((1-(1-(2,6-dioxopiperidin-3-yl)-3-methyl-2-oxo-2,3-dihydro-1H-benzo[d]imidazol-5-yl)piperidin-4-yl)(methyl)amino)methyl)piperidin-1-yl)pyrimidin-4-yl)methoxy)phenyl)propan-2-yl)benzonitrile] | 665 nM | 
Cn1c(=O)n(C2CCC(=O)NC2=O)c2cccc(C3CCN(CC4(F)CCN(C5CCN(c6nccc(COc7ccc(C(C)(C)c8cc(Cl)cc(C#N)c8)cc7)n6)CC5)CC4)CC3)c21 (stereo not shown) [Compound 124 trifluoroacetate, 3-chloro-5-(2-(4-((2-(4-((4-(1-(2,6-dioxopiperidin-3-yl)-3-methyl-2-oxo-2,3-dihydro-1H-benzo[d]imidazol-4-yl)piperidin-1-yl)methyl)-4-fluoro-[1,4′-bipiperidin]-1′-yl)pyrimidin-4-yl)methoxy)phenyl)propan-2-yl)benzonitrile] | 576 nM | 
CC(C)(c1ccc(OCc2ccnc(N3CCC(CN4CCN(c5ccc6c(c5)C(=O)N(C5CCC(=O)NC5=O)C6=O)CC4)CC3)n2)cc1)c1cc(Cl)cc(C#N)c1 (stereo not shown) [Compound 41 trifluoroacetate, 3-chloro-5-(2-(4-((2-(4-((4-(2-(2,6-dioxopiperidin-3-yl)-1,3-dioxoisoindolin-5-yl)piperazin-1-yl)methyl)piperidin-1-yl)pyrimidin-4-yl)methoxy)phenyl)propan-2-yl)benzonitrile] | 633 nM | 
CC(C)(c1ccc(OCc2ccnc(N3CCC(CN4CCC(C5CCN(c6cc7c(cc6F)C(=O)N(C6CCC(=O)NC6=O)C7=O)CC5)CC4)CC3)n2)cc1)c1cc(Cl)cc(C#N)c1 (stereo not shown) [Compound 78, 3-chloro-5-(2-(4-((2-(4-((1′-(2-(2,6-dioxopiperidin-3-yl)-6-fluoro-1,3-dioxoisoindolin-5-yl)-[4,4′-bipiperidin]-1-yl)methyl)piperidin-1-yl)pyrimidin-4-yl)methoxy)phenyl)propan-2-yl)benzonitrile] |  | AUC(0-t) [1]: 2350 ± 309 ng·h/mL
CC(C)(c1ccc(OCc2ccnc(N3CC(N4CCC(CN5CCN(c6ccc7c(c6)C(=O)N(C6CCC(=O)NC6=O)C7=O)CC5)CC4)C3)n2)cc1)c1cc(Cl)cc(C#N)c1 (stereo not shown) [Compound 47 trifluoroacetate, 3-chloro-5-(2-(4-((2-(3-(4-((4-(2-(2,6-dioxopiperidin-3-yl)-1,3-dioxoisoindolin-5-yl)piperazin-1-yl)methyl)piperidin-1-yl)azetidin-1-yl)pyrimidin-4-yl)methoxy)phenyl)propan-2-yl)benzonitrile] | 724 nM | 
Cn1c(=O)n(C2CCC(=O)NC2=O)c2ccc(C3CCN(CC4CCN(C5CC6(CCN(c7nccc(COc8ccc(C(C)(C)c9cc(Cl)cc(C#N)c9)cc8)n7)CC6)C5)CC4)CC3)cc21 (stereo not shown) [Compound 108 trifluoroacetate, 3-chloro-5-(2-(4-((2-(2-(4-((4-(1-(2,6-dioxopiperidin-3-yl)-3-methyl-2-oxo-2,3-dihydro-1H-benzo[d]imidazol-5-yl)piperidin-1-yl)methyl)piperidin-1-yl)-7-azaspiro[3.5]nonan-7-yl)pyrimidin-4-yl)methoxy)phenyl)propan-2-yl)benzonitrile] | 251 nM | 
CC(C)(c1ccc(OCc2ccnc(N3CCC4(CC3)CCN(C3CCN(CC5CCN(c6cccc7c6C(=O)N(C6CCC(=O)NC6=O)C7=O)CC5)CC3)CC4)n2)cc1)c1cc(Cl)c(OCCCl)c(C#N)c1 (stereo not shown) [Compound 28, 3-chloro-2-(2-chloroethoxy)-5-(2-(4-((2-(9-(1-((1-(2-(2,6-dioxopiperidin-3-yl)-1,3-dioxoisoindolin-4-yl)piperidin-4-yl)methyl)piperidin-4-yl)-3,9-diazaspiro[5.5]undecan-3-yl)pyrimidin-4-yl)methoxy)phenyl)propan-2-yl)benzonitrile] |  | IC50 [2]: 634 nM
CC(C)(c1ccc(OCc2ccnc(N3CCN(CC4CCN(C5CCCN(c6ccc7c(c6)C(=O)N(C6CCC(=O)NC6=O)C7=O)C5)C4)CC3)n2)cc1)c1cc(Cl)cc(C#N)c1 (stereo not shown) [Compound 67 trifluoroacetate, 3-chloro-5-(2-(4-((2-(4-((1-(1-(2-(2,6-dioxopiperidin-3-yl)-1,3-dioxoisoindolin-5-yl)piperidin-3-yl)pyrrolidin-3-yl)methyl)piperazin-1-yl)pyrimidin-4-yl)methoxy)phenyl)propan-2-yl)benzonitrile] | 643 nM | 
CC(C)(c1ccc(OCc2ccnc(N3CCC(CN4CCC5(CC4)CCN(c4ccc6c(c4)C(=O)N(C4CCC(=O)NC4=O)C6=O)CC5)CC3)n2)cc1)c1cc(Cl)cc(C#N)c1 (stereo not shown) [Compound 77 trifluoroacetate, 3-chloro-5-(2-(4-((2-(4-((9-(2-(2,6-dioxopiperidin-3-yl)-1,3-dioxoisoindolin-5-yl)-3,9-diazaspiro[5.5]undecan-3-yl)methyl)piperidin-1-yl)pyrimidin-4-yl)methoxy)phenyl)propan-2-yl)benzonitrile] | 192 nM | 

Reference: patent publication US20240383874A1, “BENZENE RING DERIVATIVE, AND COMPOSITION AND PHARMACEUTICAL USE THEREOF” (Xizang Haisco Pharmaceutical Co., Ltd., priority 2020, published 2024)
